The record followed here is ChEMBL document CHEMBL5500371, “Arginine and tryptophan-rich dendritic antimicrobial peptides that disrupt membranes for bacterial infection in vivo” (Eur J Med Chem, 2024).

Activity calls are given as the source filed them. The calls are words filed in the database; no cut-off is given here. Where a SMILES comes first, the peptide text is derived from it. Side-chain parts run from the residue outwards.

Data set [1] deals with Escherichia coli. Description: Antibacterial activity against Escherichia coli ATCC 25922 assessed as inhibition of bacterial growth incubated for 20 hrs in presence of KCl by broth microdilution method (reference value: 4 microM). Format: functional, organism-based.
For data set [2], the system named is Escherichia coli. Description: Antibacterial activity against Escherichia coli ATCC 25922 assessed as inhibition of bacterial growth incubated for 20 hrs in presence of FeCl3 by broth microdilution method (reference value: 4 microM). The class given is functional, organism-based.
Data set [3] relates to Escherichia coli. Description: Antibacterial activity against Escherichia coli ATCC 25922 assessed as inhibition of bacterial growth incubated for 20 hrs in presence of ZnCl2 by broth microdilution method (reference value: 4 microM). The class given is functional, organism-based.
The test system of data set [4] is Staphylococcus aureus. Description: Bactericidal activity against Staphylococcus aureus ATCC 25923 assessed as elimination of bacteria at 2 times MIC measured after >6 hrs by time kill assay. Format: functional, organism-based.
Data set [5] relates to Cell membrane. Description: Induction of cell membrane damage in Escherichia coli assessed as PI uptake at 2 times MIC measured after 2 hrs by PI dye based flow cytometry analysis (reference value: 16.5%). The class given is cell membranes.
For data set [6], the system named is Escherichia coli. Put plainly: Resistant development in Escherichia coli assessed as increase in MIC at sub-MIC measured after 20 passages. Format: functional, organism-based.
Data set [7] deals with Staphylococcus aureus. Description: Resistant development in Staphylococcus aureus assessed as increase in MIC at sub-MIC measured after 20 passages. Format: functional, organism-based.
For data set [8], the system named is Escherichia coli. Put plainly: Synergistic antibacterial activity against Escherichia coli ATCC 25922 assessed as fractional inhibitory concentration index at 0.25 to 4 times MIC incubated for 20 hrs in presence of gentamicin by checkerboard assay. The class given is functional, organism-based.
For data set [9], the system named is Escherichia coli. Description: Synergistic antibacterial activity against rifampicin resistant Escherichia coli ATCC 25922 assessed as fractional inhibitory concentration index at 0.25 to 4 times MIC incubated for 20 hrs in presence of rifampicin by checkerboard assay. The class given is functional, organism-based.
Data set [10] has as its system Escherichia coli. Description: […] activity against Escherichia coli ATCC 25922 infected in male BALB/c pulmonary infection model assessed as reduction in lung inflammation at 10 mg/kg, ip administered at 3 and 12 hrs post infection and measured 24 hrs post infection by H and E staining based analysis. Format: functional, organism-based. The settings on record: time 12-21 hrs.

Data set [11] concerns Escherichia coli. Description: […] activity against Escherichia coli ATCC 25922 infected in male BALB/c pulmonary infection model assessed as reduction in liver bleeding at 10 mg/kg, ip administered at 3 and 12 hrs post infection and measured 24 hrs post infection by H and E staining based analysis. The class given is functional, organism-based. The note with it: time 12-21 hrs.

Data set [12] concerns Escherichia coli. Description: Antibacterial activity against Escherichia coli ATCC 25922 assessed as inhibition of bacterial growth incubated for 20 hrs in presence of FeCl3 by broth microdilution method (reference value: 16 microM). The class given is functional.
For data set [13], the system named is Escherichia coli. Description: Additive antibacterial activity against rifampicin resistant Escherichia coli ATCC 25922 assessed as fractional inhibitory concentration index at 0.25 to 4 times MIC incubated for 20 hrs in presence of rifampicin by checkerboard assay. The class given is functional.
For data set [14], the system named is Staphylococcus aureus. Description: Additive antibacterial activity against rifampicin resistant Staphylococcus aureus ATCC 25923 assessed as fractional inhibitory concentration index at 0.25 to 4 times MIC incubated for 20 hrs in presence of rifampicin by checkerboard assay. Format: functional.
Data set [15] can be described thus: Systemic toxicity in male BALB/c mouse assessed as hepatocyte hemorrhage at 109.31 mg/kg, ip administered as single dose by H and E staining based analysis. The class given is organism-based. The note with it: hepatocytes.
Data set [16] is described as follows: Systemic toxicity in male BALB/c mouse assessed as lung inflammatory cell infiltration at 109.31 mg/kg, ip administered as single dose by H and E staining based analysis. Format: organism-based. The note with it: in vivo.
In data set [17] the test system is Escherichia coli. Put plainly: Antibacterial activity against Escherichia coli ATCC 25922 assessed as inhibition of bacterial growth incubated for 20 hrs in presence of FeCl3 by broth microdilution method (reference value: 8 microM). The class given is functional.
Data set [18] deals with Escherichia coli. Description: Antibacterial activity against Escherichia coli ATCC 25922 assessed as inhibition of bacterial growth incubated for 20 hrs in presence of ZnCl2 by broth microdilution method (reference value: 8 microM). Format: functional.
Data set [19] relates to Staphylococcus aureus. Put plainly: Antibacterial activity against Staphylococcus aureus ATCC 25923 assessed as inhibition of bacterial growth incubated for 20 hrs in presence of KCl by broth microdilution method (reference value: 8 microM). Format: functional.
Data set [20] concerns Staphylococcus aureus. Put plainly: Antibacterial activity against Staphylococcus aureus ATCC 25923 assessed as inhibition of bacterial growth incubated for 20 hrs in presence of FeCl3 by broth microdilution method (reference value: 8 microM). Format: functional.
Data set [21] concerns Staphylococcus aureus. Put plainly: Synergistic antibacterial activity against gentamicin resistant Staphylococcus aureus ATCC 25923 assessed as fractional inhibitory concentration index at 0.25 to 4 times MIC incubated for 20 hrs in presence of gentamicin by checkerboard assay. The class given is functional.
A short description of data set [22]: Systemic toxicity in male BALB/c mouse assessed as renal cell necrosis at 105.41 mg/kg, ip administered as single dose by H and E staining based analysis. Format: organism-based. The note with it: in vivo.

As for POLYMYXIN B, the MIC stood at 4 µM in data set [1], 4 µM in data set [2] and 8 µM in [3]. The Activity is 100% in data set [4] and 46.8% in data set [5]. For the same molecule, the outcome in [6], in data set [7], in data set [10] and in [11] was inactive. Also, the fractional inhibitory concentration index (FICI) in data set [8] and in [9] was 0.313 each time.

With `N=C(N)NCCC[C@H](NC(=O)[C@@H](N)CCCNC(=N)N)C(=O)NCCCC[C@H](NC(=O)[C@H](CCCNC(=N)N)NC(=O)[C@@H](N)CCCNC(=N)N)C(=O)N[C@@H](Cc1c[nH]c2ccccc12)C(=O)N[C@@H](Cc1c[nH]c2ccccc12)C(=O)N[C@@H](Cc1c[nH]c2ccccc12)C(=O)N[C@@H](Cc1c[nH]c2ccccc12)C(N)=O` (H-RRK([Arg-Arg])WWWW-NH2), in data set [12], the MIC turned out to be 16 µM. The “fractional inhibitory concentration index (FICI)” value in data set [13] and in data set [14] was 0.563 each time. The Activity result in [15] and in data set [16] was “Non-Toxic” throughout.

With `N=C(N)NCCC[C@H](NC(=O)[C@H](CCCNC(=N)N)NC(=O)[C@H](CCCNC(=N)N)NC(=O)[C@@H](N)CCCNC(=N)N)C(=O)N[C@@H](CCCCN)C(=O)N[C@@H](Cc1c[nH]c2ccccc12)C(=O)N[C@@H](Cc1c[nH]c2ccccc12)C(=O)N[C@@H](Cc1c[nH]c2ccccc12)C(=O)N[C@@H](Cc1c[nH]c2ccccc12)C(N)=O`, the MIC in data set [17] is 16 µM; in data set [18], 8 µM; in data set [19], 8 µM; in data set [20] it was 8 µM. Further, the “fractional inhibitory concentration index (FICI)” value in [21] was 0.5. For the same molecule, the Activity entry in [22] is recorded as “Non-Toxic”.
